# Measured values: the NIST ThermoML archive (doi:10.1021/je700152c)
# ± gives the expanded uncertainty stated by the source.
# Legend:
# [1] = Molar enthalpy of transition or fusion; conditions: Adiabatic calorimetry
smiles,measurement,setting,value
CCCCn1cc[n+](C)c1.Cc1ccc(S(=O)(=O)[O-])cc1 [1-butyl-3-methylimidazolium tosylate],Triple point temperature,"Crystal 1, Adiabatic calorimetry",343.8 ± 0.67 K
same,Triple point temperature,"Crystal 2, Adiabatic calorimetry",152 ± 1 K
same,Triple point temperature,Metastable crystal,342.48 ± 0.2 K
same,Molar enthalpy of transition or fusion,[1]; Crystal 1,5.16 ± 0.0574 kcal/mol
same,Molar enthalpy of transition or fusion,[1]; Crystal 2,0.0464 ± 0.0478 kcal/mol
same,Molar enthalpy of transition or fusion,[1]; Metastable crystal,4.76 ± 0.0621 kcal/mol
